According to patent publication US5885789A, “Solution-based assay for peroxidatively-active substances in bodily fluids” (STC Technologies Incorporated, priority 1997, dated 1999):

Experiment: Calibration of the Working Reagent at 660 nm (aqueous hemoglobin solutions)
Type: biochemical
Details: 2 minutes, 37° C.
Description: To prepare the solution-based assay composition, 14 mL of stock reagent B was poured into 1 mL of stock reagent A and mixed gently for 1-2 minutes by stirring. The combined A/B reagent was poured into 1 L of stock reagent C and mixed gently by stirring for approximately 30 minutes and allowed to stand at room temperature overnight prior to use. This prepared a working solution-based assay composition to be used as a working reagent.
A solution-based assay composition prepared according to Example 1 was used to calibrate its detectable color change having an absorbance at about 660 nm. Aqueous solutions of hemoglobin were prepared in the concentrations of 0.055, 0.060, 0.065, 0.068, 0.070, and 0.075 mg/dL. Twenty-one replicates of each hemoglobin solution were run using the following procedure.
The solution-based assay composition (or working reagent) and the hemoglobin solutions were equilibrated at room temperature before use. A 15 microliter sample of a hemoglobin solution and 250 microliters of the working reagent were transferred to the sample wheel of a Cobas-Bio autoanalyzer which was equilibrated at 37° C. The sample and the working reagent were mixed by rotation of the sample wheel. After the sample and working reagent were allowed to react for 2 minutes, the absorbance of the resulting solution was measured at 660 nm. The calibration curve shown in FIG. 1 was generated by plotting absorbance versus concentration data shown in Table 1 below and using standard regression analysis. This calibration curve can then be used to quantitatively assay the amount of hemoglobin in a bodily fluid.

HEMOGLOBIN
ABSORBANCE, 660 nm (hemoglobin 0.055 mg/dL, 15 microliter sample + 250 microliters working reagent): 0.1139 | ABSORBANCE, 660 nm (hemoglobin 0.06 mg/dL): 0.1319 | ABSORBANCE, 660 nm (hemoglobin 0.065 mg/dL): 0.1474 | ABSORBANCE, 660 nm (hemoglobin 0.0675 mg/dL): 0.1557 | ABSORBANCE, 660 nm (hemoglobin 0.070 mg/dL): 0.1719 | ABSORBANCE, 660 nm (hemoglobin 0.075 mg/dL): 0.1877
